Measured values from US5972894A, “Peptides having potassium channel opener activity” (Cytran, Inc., priority 1997, dated 1999).
Residues, ends and D or L forms follow the SMILES beside them.

Tested on: ischemic myocardium
Assay: Inotropic function and arrhythmias of ischemic isolated rat heart during reperfusion
Details: for Number of Ventricular Extrasystoles / Overall Duration of Ventricular Fibrillation / Overall Duration of Ventricular Tachycardia: 30-minute reperfusion
Excerpt: Rat hearts were surgically isolated from white random-bred rats weighing approximately 250 g. The isolated hearts were perfused with a standard oxygenated (95% O2 and 5% CO2) Krebs-Henseleit solution in a retrograde manner (i.e., according to Langendorff and using a constant perfusate pressure of 80 cm of water). The hearts maintained a steady spontaneous contraction rate. A latex balloon catheter connected to a pressure transducer (EMT-746, Siemens-Elema, Sweden) was inserted into the left ventricle of each heart to measure the inotropic function of the heart (as described in Example 3, above). The left ventricle pressure variation curve was recorded using a polygraph.
Stage I ("adaptation regimen") consisted of a 30-minute adaptation of the respective rat hearts to the perfusion regimen. The baseline parameters for the inotropic function of each heart were recorded to establish the preischemic values for the following measured parameters: (i) the systolic pressure in the left ventricle (Psyst. mm Hg); (ii) the diastolic pressure in the left ventricle (Pdiast. mm Hg); (iii) the evolving pressure (Pev. =Psyst. -Pdist. mm Hg); (iv) the maximal rate of increase of left ventricle pressure (+dp/dtmax mm Hg/sec); and (v) the maximal rate of decrease of left ventricle pressure (-dp/dtmax mm Hg/sec). In addition, the heart rate (HR) of each heart was determined from the recordings made of the variations in the left ventricle pressure over time. In Stage II ("ischemic simulation"), ischemia was induced in each heart by shutting off the supply of the perfusion solution to the heart. Approximately 30 minutes later, Stage III ("reperfusion regimen") was initiated by restarting the reperfusion and including in the perfusate solution a test or control substance at one of the following respective concentrations: a perfusate solution of a test substance comprised 0.06, 0.6, or 6.0 mg/l GE, or 0.06, 0.6, or 6.0 mg/l VT, respectively; a perfusate solution of the positive control substance comprised 14 mg/l inosine. Inosine is a nucleoside preparation that produces a favorable inotropic effect on both normal and ischemic myocardium while inducing no rhythm disturbances or acceleration of ischemic contracture development. Woollard et al., Cardiovasc. Res. 15: 659-67 (1981). Inosine was obtained from Sigma Chemical Company, USA (Cat. Code I-4125; lot number 81H0227). The negative control substance comprised reperfusion using a standard oxygenated Krebs-Henseleit solution.
For each heart, the inotropic function of the myocardium was evaluated by measuring the parameters (i) through (v), discussed above, and the heart rate. These six parameters were recorded continuously throughout the study (i.e., beginning with Stage I and continuing through Stage III). The recordings were analyzed at the following times: (a) immediately before beginning Stage II (that is, after the 30-minute Stage I adaptation period, but before stopping perfusion); and (b) at 1, 5, 10, 20, and 30 minutes into the Stage III reperfusion.
The frequency and duration of rhythm disturbances in the 30-minute Stage III reperfusion period were determined by measuring the following parameters: (i) the number of ventricular extrasystoles; (ii) the overall duration of ventricular tachycardias (in seconds); and (iii) the overall duration of ventricular fibrillation (in seconds). Each dose of the test substance was tested on nine isolated hearts.

NCC(=O)N[C@@H](CCC(=O)O)C(=O)O [GE, L-Glycyl-L-Glutamic acid] (H-Gly-Glu-OH)
Number of Ventricular Extrasystoles (0.06 mg/l): 182.2 | Overall Duration of Ventricular Fibrillation (0.06 mg/l): 0 s | Overall Duration of Ventricular Tachycardia (0.06 mg/l): 2.1 s | Diastolic Pressure in Ischemic Left Ventricle (% of Preischemic Mean Value) (0.06 mg/l, 1 min reperfusion): 95.96% | Evolving Pressure in Ischemic Left Ventricle (% of Preischemic Mean Value) (0.06 mg/l, 1 min reperfusion): 117.70% | Heart Rate during Reperfusion (% of Preischemic Mean Value) (0.06 mg/l, 1 min reperfusion): 69.09% | Maximal Rate of Increase of Left Ventricle Pressure (% of Preischemic Mean Value) (0.06 mg/l, 1 min reperfusion): 127.30% | Maximal Rate of Left Ventricle Pressure Decrease (% of Preischemic Mean Value) (0.06 mg/l, 1 min reperfusion): 86.91% | Systolic Pressure in Ischemic Left Ventricle (% of Preischemic Values) (0.06 mg/l, 1 min reperfusion): 115.11% | Diastolic Pressure in Ischemic Left Ventricle (% of Preischemic Mean Value) (0.06 mg/l, 5 min reperfusion): 124.53% | Evolving Pressure in Ischemic Left Ventricle (% of Preischemic Mean Value) (0.06 mg/l, 5 min reperfusion): 92.58% | Heart Rate during Reperfusion (% of Preischemic Mean Value) (0.06 mg/l, 5 min reperfusion): 91.94% | Maximal Rate of Increase of Left Ventricle Pressure (% of Preischemic Mean Value) (0.06 mg/l, 5 min reperfusion): 98.87% | Maximal Rate of Left Ventricle Pressure Decrease (% of Preischemic Mean Value) (0.06 mg/l, 5 min reperfusion): 89.27% | Systolic Pressure in Ischemic Left Ventricle (% of Preischemic Values) (0.06 mg/l, 5 min reperfusion): 98.86% | Diastolic Pressure in Ischemic Left Ventricle (% of Preischemic Mean Value) (0.06 mg/l, 10 min reperfusion): 128.57% | Evolving Pressure in Ischemic Left Ventricle (% of Preischemic Mean Value) (0.06 mg/l, 10 min reperfusion): 86.19% | Heart Rate during Reperfusion (% of Preischemic Mean Value) (0.06 mg/l, 10 min reperfusion): 93.44% | Maximal Rate of Increase of Left Ventricle Pressure (% of Preischemic Mean Value) (0.06 mg/l, 10 min reperfusion): 87.39% | Maximal Rate of Left Ventricle Pressure Decrease (% of Preischemic Mean Value) (0.06 mg/l, 10 min reperfusion): 82.04% | Systolic Pressure in Ischemic Left Ventricle (% of Preischemic Values) (0.06 mg/l, 10 min reperfusion): 89.79% | Diastolic Pressure in Ischemic Left Ventricle (% of Preischemic Mean Value) (0.06 mg/l, 20 min reperfusion): 134.92% | Evolving Pressure in Ischemic Left Ventricle (% of Preischemic Mean Value) (0.06 mg/l, 20 min reperfusion): 74.40% | Heart Rate during Reperfusion (% of Preischemic Mean Value) (0.06 mg/l, 20 min reperfusion): 72.87% | Maximal Rate of Increase of Left Ventricle Pressure (% of Preischemic Mean Value) (0.06 mg/l, 20 min reperfusion): 87.39% | Maximal Rate of Left Ventricle Pressure Decrease (% of Preischemic Mean Value) (0.06 mg/l, 20 min reperfusion): 75.11% | Systolic Pressure in Ischemic Left Ventricle (% of Preischemic Values) (0.06 mg/l, 20 min reperfusion): 84.10% | Diastolic Pressure in Ischemic Left Ventricle (% of Preischemic Mean Value) (0.06 mg/l, 30 min reperfusion): 91.20% | Evolving Pressure in Ischemic Left Ventricle (% of Preischemic Mean Value) (0.06 mg/l, 30 min reperfusion): 68.73% | Heart Rate during Reperfusion (% of Preischemic Mean Value) (0.06 mg/l, 30 min reperfusion): 68.67% | Maximal Rate of Increase of Left Ventricle Pressure (% of Preischemic Mean Value) (0.06 mg/l, 30 min reperfusion): 70.93% | Maximal Rate of Left Ventricle Pressure Decrease (% of Preischemic Mean Value) (0.06 mg/l, 30 min reperfusion): 66.02% | Systolic Pressure in Ischemic Left Ventricle (% of Preischemic Values) (0.06 mg/l, 30 min reperfusion): 72.11% | Number of Ventricular Extrasystoles (0.6 mg/l): 168.5 | Overall Duration of Ventricular Fibrillation (0.6 mg/l): 44.3 s | Overall Duration of Ventricular Tachycardia (0.6 mg/l): 22.2 s | Diastolic Pressure in Ischemic Left Ventricle (% of Preischemic Mean Value) (0.6 mg/l, 1 min reperfusion): 69.70% | Evolving Pressure in Ischemic Left Ventricle (% of Preischemic Mean Value) (0.6 mg/l, 1 min reperfusion): 71.90% | Heart Rate during Reperfusion (% of Preischemic Mean Value) (0.6 mg/l, 1 min reperfusion): 52.28% | Maximal Rate of Increase of Left Ventricle Pressure (% of Preischemic Mean Value) (0.6 mg/l, 1 min reperfusion): 71.21% | Maximal Rate of Left Ventricle Pressure Decrease (% of Preischemic Mean Value) (0.6 mg/l, 1 min reperfusion): 53.56% | Systolic Pressure in Ischemic Left Ventricle (% of Preischemic Values) (0.6 mg/l, 1 min reperfusion): 74.01% | Diastolic Pressure in Ischemic Left Ventricle (% of Preischemic Mean Value) (0.6 mg/l, 5 min reperfusion): 113.42% | Evolving Pressure in Ischemic Left Ventricle (% of Preischemic Mean Value) (0.6 mg/l, 5 min reperfusion): 83.73% | Heart Rate during Reperfusion (% of Preischemic Mean Value) (0.6 mg/l, 5 min reperfusion): 85.30% | Maximal Rate of Increase of Left Ventricle Pressure (% of Preischemic Mean Value) (0.6 mg/l, 5 min reperfusion): 84.14% | Maximal Rate of Left Ventricle Pressure Decrease (% of Preischemic Mean Value) (0.6 mg/l, 5 min reperfusion): 79.56% | Systolic Pressure in Ischemic Left Ventricle (% of Preischemic Values) (0.6 mg/l, 5 min reperfusion): 90.02% | Diastolic Pressure in Ischemic Left Ventricle (% of Preischemic Mean Value) (0.6 mg/l, 10 min reperfusion): 95.24% | Evolving Pressure in Ischemic Left Ventricle (% of Preischemic Mean Value) (0.6 mg/l, 10 min reperfusion): 86.63% | Heart Rate during Reperfusion (% of Preischemic Mean Value) (0.6 mg/l, 10 min reperfusion): 77.07% | Maximal Rate of Increase of Left Ventricle Pressure (% of Preischemic Mean Value) (0.6 mg/l, 10 min reperfusion): 88.69% | Maximal Rate of Left Ventricle Pressure Decrease (% of Preischemic Mean Value) (0.6 mg/l, 10 min reperfusion): 87.20%
